{"source": "ChEMBL document CHEMBL1201861", "about": "“Genomics of Drug Sensitity in Cancer screening data, Wellcome Trust Sanger Institute”", "key": {"[1]": {"system": "CP50-MEL-B", "assay": "cells", "assay_type": "functional, cell-based, Homo sapiens", "details": "Homo sapiens, CP50-MEL-B", "description": "SANGER: Inhibition of human CP50-MEL-B cell growth in a cell viability assay."}, "[2]": {"system": "EVSA-T", "assay": "cells", "assay_type": "functional, cell-based, Homo sapiens", "details": "Homo sapiens, EVSA-T", "description": "SANGER: Inhibition of human EVSA-T cell growth in a cell viability assay."}, "[3]": {"system": "HCC1395", "assay": "cells", "assay_type": "functional, cell-based, Homo sapiens", "details": "Homo sapiens, HCC1395", "description": "SANGER: Inhibition of human HCC1395 cell growth in a cell viability assay."}, "[4]": {"system": "HCC70", "assay": "cells", "assay_type": "functional, cell-based, Homo sapiens", "details": "Homo sapiens, HCC70", "description": "SANGER: Inhibition of human HCC70 cell growth in a cell viability assay."}, "[5]": {"system": "HSC-3", "assay": "cells", "assay_type": "functional, cell-based, Homo sapiens", "details": "Homo sapiens, HSC-3", "description": "SANGER: Inhibition of human HSC-3 cell growth in a cell viability assay."}, "[6]": {"system": "HSC-4", "assay": "cells", "assay_type": "functional, cell-based, Homo sapiens", "details": "Homo sapiens, HSC-4", "description": "SANGER: Inhibition of human HSC-4 cell growth in a cell viability assay."}, "[7]": {"system": "KYSE-150 cell line", "assay": "cells", "assay_type": "functional, cell-based, Homo sapiens", "details": "Homo sapiens, KYSE-150", "description": "SANGER: Inhibition of human KYSE-150 cell growth in a cell viability assay."}, "[8]": {"system": "KYSE-410", "assay": "cells", "assay_type": "functional, cell-based, Homo sapiens", "details": "Homo sapiens, KYSE-410", "description": "SANGER: Inhibition of human KYSE-410 cell growth in a cell viability assay."}, "[9]": {"system": "M14", "assay": "cells", "assay_type": "functional, cell-based, Homo sapiens", "details": "Homo sapiens, M14", "description": "SANGER: Inhibition of human M14 cell growth in a cell viability assay."}, "[10]": {"system": "MDA-MB-157", "assay": "cells", "assay_type": "functional, cell-based, Homo sapiens", "details": "Homo sapiens, MDA-MB-157", "description": "SANGER: Inhibition of human MDA-MB-157 cell growth in a cell viability assay."}, "[11]": {"system": "MDA-MB-175-VII", "assay": "cells", "assay_type": "functional, cell-based, Homo sapiens", "details": "Homo sapiens, MDA-MB-175-VII"}, "[12]": {"system": "MDA-MB-361", "assay": "cells", "assay_type": "functional, cell-based, Homo sapiens", "details": "Homo sapiens, MDA-MB-361"}, "[13]": {"system": "MDA-MB-453", "assay": "cells", "assay_type": "functional, cell-based, Homo sapiens", "details": "Homo sapiens, MDA-MB-453", "description": "SANGER: Inhibition of human MDA-MB-453 cell growth in a cell viability assay."}, "[14]": {"system": "MEL-JUSO", "assay": "cells", "assay_type": "functional, cell-based, Homo sapiens", "details": "Homo sapiens, MEL-JUSO", "description": "SANGER: Inhibition of human MEL-JUSO cell growth in a cell viability assay."}, "[15]": {"system": "NCCIT", "assay": "SANGER: Inhibition of human NCCIT cell growth in a cell viability assay.", "assay_type": "functional, cell-based", "details": "Homo sapiens, NCCIT"}, "[16]": {"system": "NCI-H1437", "assay": "cells", "assay_type": "functional, cell-based, Homo sapiens", "details": "Homo sapiens, NCI-H1437", "description": "SANGER: Inhibition of human NCI-H1437 cell growth in a cell viability assay."}, "[17]": {"system": "NCI-H1522", "assay": "cells", "assay_type": "functional, cell-based, Homo sapiens", "details": "Homo sapiens, NCI-H1522", "description": "SANGER: Inhibition of human NCI-H1522 cell growth in a cell viability assay."}, "[18]": {"system": "NCI-H1703", "assay": "cells", "assay_type": "functional, cell-based, Homo sapiens", "details": "Homo sapiens, NCI-H1703", "description": "SANGER: Inhibition of human NCI-H1703 cell growth in a cell viability assay."}, "[19]": {"system": "NCI-H2170", "assay": "cells", "assay_type": "functional, cell-based, Homo sapiens", "details": "Homo sapiens, NCI-H2170", "description": "SANGER: Inhibition of human NCI-H2170 cell growth in a cell viability assay."}, "[20]": {"system": "NCI-H322M", "assay": "cells", "assay_type": "functional, cell-based, Homo sapiens", "details": "Homo sapiens, NCI-H322M", "description": "SANGER: Inhibition of human NCI-H322M cell growth in a cell viability assay."}, "[21]": {"system": "NCI-H64", "assay": "cells", "assay_type": "functional, cell-based, Homo sapiens", "details": "Homo sapiens, NCI-H64", "description": "SANGER: Inhibition of human NCI-H64 cell growth in a cell viability assay."}, "[22]": {"system": "NCI-H727", "assay": "cells", "assay_type": "functional, cell-based, Homo sapiens", "details": "Homo sapiens, NCI-H727", "description": "SANGER: Inhibition of human NCI-H727 cell growth in a cell viability assay."}, "[23]": {"system": "NY", "assay": "cells", "assay_type": "functional, cell-based, Homo sapiens", "details": "Homo sapiens, NY", "description": "SANGER: Inhibition of human NY cell growth in a cell viability assay."}, "[24]": {"system": "PA-1", "assay": "cells", "assay_type": "functional, cell-based, Homo sapiens", "details": "Homo sapiens, PA-1", "description": "SANGER: Inhibition of human PA-1 cell growth in a cell viability assay."}, "[25]": {"system": "RL95-2", "assay": "cells", "assay_type": "functional, cell-based", "details": "Homo sapiens", "description": "SANGER: Inhibition of human RL95-2 cell growth in a cell viability assay."}, "[26]": {"system": "SCC-25", "assay": "cells", "assay_type": "functional, cell-based, Homo sapiens", "details": "Homo sapiens, SCC-25", "description": "SANGER: Inhibition of human SCC-25 cell growth in a cell viability assay."}, "[27]": {"system": "SIMA", "assay": "cells", "assay_type": "functional, cell-based, Homo sapiens", "details": "Homo sapiens, SIMA", "description": "SANGER: Inhibition of human SIMA cell growth in a cell viability assay."}, "[28]": {"system": "SKG-IIIa", "assay": "cells", "assay_type": "functional, cell-based, Homo sapiens", "details": "Homo sapiens, SKG-IIIa", "description": "SANGER: Inhibition of human SKG-IIIa cell growth in a cell viability assay."}, "[29]": {"system": "SR", "assay": "cells", "assay_type": "functional, cell-based, Homo sapiens", "details": "Homo sapiens, SR", "description": "SANGER: Inhibition of human SR cell growth in a cell viability assay."}, "[30]": {"system": "SU-DHL-1", "assay": "SANGER: Inhibition of human SU-DHL-1 cell growth in a cell viability assay.", "assay_type": "functional, cell-based", "details": "Homo sapiens, SU-DHL-1"}, "[31]": {"system": "SW1990", "assay": "cells", "assay_type": "functional, cell-based, Homo sapiens", "details": "Homo sapiens, SW1990", "description": "SANGER: Inhibition of human SW1990 cell growth in a cell viability assay."}, "[32]": {"system": "T-24", "assay": "cells", "assay_type": "functional, cell-based, Homo sapiens", "details": "Homo sapiens, T-24", "description": "SANGER: Inhibition of human T-24 cell growth in a cell viability assay."}, "[33]": {"system": "T98G", "assay": "cells", "assay_type": "functional, cell-based, Homo sapiens", "details": "Homo sapiens, T98G", "description": "SANGER: Inhibition of human T98G cell growth in a cell viability assay."}, "[34]": {"system": "5637", "assay": "cells", "assay_type": "functional, cell-based, Homo sapiens", "details": "Homo sapiens", "description": "SANGER: Inhibition of human 5637 cell growth in a cell viability assay."}, "[35]": {"system": "AU565", "assay": "cells", "assay_type": "functional, cell-based, Homo sapiens", "details": "Homo sapiens, AU565", "description": "SANGER: Inhibition of human AU565 cell growth in a cell viability assay."}, "[36]": {"system": "CAL-120", "assay": "cells", "assay_type": "functional, cell-based, Homo sapiens", "details": "Homo sapiens, CAL-120", "description": "SANGER: Inhibition of human CAL-120 cell growth in a cell viability assay."}, "[37]": {"system": "TE-441-T", "assay": "cells", "assay_type": "functional, cell-based, Homo sapiens", "details": "Homo sapiens, TE-441-T", "description": "SANGER: Inhibition of human TE-441-T cell growth in a cell viability assay."}, "[38]": {"system": "U2OS", "assay": "cells", "assay_type": "functional, cell-based, Homo sapiens, U-2-OS", "details": "Homo sapiens, U2OS", "description": "SANGER: Inhibition of human U-2-OS cell growth in a cell viability assay."}, "[39]": {"system": "U-251", "assay": "cells", "assay_type": "functional, cell-based, Homo sapiens", "details": "Homo sapiens, U-251", "description": "SANGER: Inhibition of human U251 cell growth in a cell viability assay."}, "[40]": {"system": "UMC-11", "assay": "cells", "assay_type": "functional, cell-based, Homo sapiens", "details": "Homo sapiens, UMC-11", "description": "SANGER: Inhibition of human UMC-11 cell growth in a cell viability assay."}, "[41]": {"system": "CESS", "assay": "SANGER: Inhibition of human CESS cell growth in a cell viability assay.", "assay_type": "functional, cell-based", "details": "Homo sapiens, CESS"}, "[42]": {"system": "COLO-678", "assay": "cells", "assay_type": "functional, cell-based, Homo sapiens", "details": "Homo sapiens, COLO-678", "description": "SANGER: Inhibition of human COLO-678 cell growth in a cell viability assay."}, "[43]": {"system": "EW-22", "assay": "cells", "assay_type": "functional, cell-based, Homo sapiens", "details": "Homo sapiens, EW-22", "description": "SANGER: Inhibition of human EW-22 cell growth in a cell viability assay."}}, "data": [{"smiles": "N#Cc1c(O)c2c(-c3ccc(-c4ccccc4O)cc3)csc2[nH]c1=O", "values": [{"measurement": "IC50", "setting": "[1]", "value": "> 1.02", "unit": "µM"}, {"measurement": "IC50", "setting": "[2]", "value": 0.381, "unit": "µM"}, {"measurement": "IC50", "setting": "[3]", "value": "> 1.02", "unit": "µM"}, {"measurement": "IC50", "setting": "[4]", "value": "> 1.02", "unit": "µM"}, {"measurement": "IC50", "setting": "[5]", "value": "> 1.02", "unit": "µM"}, {"measurement": "IC50", "setting": "[6]", "value": "> 1.02", "unit": "µM"}, {"measurement": "IC50", "setting": "[7]", "value": "> 1.02", "unit": "µM"}, {"measurement": "IC50", "setting": "[8]", "value": "> 1.02", "unit": "µM"}, {"measurement": "IC50", "setting": "[9]", "value": "> 1.02", "unit": "µM"}, {"measurement": "IC50", "setting": "[10]", "value": 0.824, "unit": "µM"}, {"measurement": "IC50", "setting": "[11]", "value": "> 1.02", "unit": "µM"}, {"measurement": "IC50", "setting": "[12]", "value": 0.86, "unit": "µM"}, {"measurement": "IC50", "setting": "[13]", "value": "> 1.02", "unit": "µM"}, {"measurement": "IC50", "setting": "[14]", "value": "> 1.02", "unit": "µM"}, {"measurement": "IC50", "setting": "[15]", "value": "> 1.02", "unit": "µM"}, {"measurement": "IC50", "setting": "[16]", "value": "> 1.02", "unit": "µM"}, {"measurement": "IC50", "setting": "[17]", "value": 0.194, "unit": "µM"}, {"measurement": "IC50", "setting": "[18]", "value": "> 1.02", "unit": "µM"}, {"measurement": "IC50", "setting": "[19]", "value": "> 1.02", "unit": "µM"}, {"measurement": "IC50", "setting": "[20]", "value": "> 1.02", "unit": "µM"}, {"measurement": "IC50", "setting": "[21]", "value": "> 1.02", "unit": "µM"}, {"measurement": "IC50", "setting": "[22]", "value": "> 1.02", "unit": "µM"}, {"measurement": "IC50", "setting": "[23]", "value": "> 1.02", "unit": "µM"}, {"measurement": "IC50", "setting": "[24]", "value": "> 1.02", "unit": "µM"}, {"measurement": "IC50", "setting": "[25]", "value": "> 1.02", "unit": "µM"}, {"measurement": "IC50", "setting": "[26]", "value": "> 1.02", "unit": "µM"}, {"measurement": "IC50", "setting": "[27]", "value": "> 1.02", "unit": "µM"}, {"measurement": "IC50", "setting": "[28]", "value": "> 1.02", "unit": "µM"}, {"measurement": "IC50", "setting": "[29]", "value": 0.114, "unit": "µM"}, {"measurement": "IC50", "setting": "[30]", "value": "> 1.02", "unit": "µM"}, {"measurement": "IC50", "setting": "[31]", "value": "> 1.02", "unit": "µM"}, {"measurement": "IC50", "setting": "[32]", "value": "> 1.02", "unit": "µM"}, {"measurement": "IC50", "setting": "[33]", "value": "> 1.02", "unit": "µM"}, {"measurement": "IC50", "setting": "[34]", "value": "> 1.02", "unit": "µM"}, {"measurement": "IC50", "setting": "[35]", "value": "> 1.02", "unit": "µM"}, {"measurement": "IC50", "setting": "[36]", "value": "> 1.02", "unit": "µM"}, {"measurement": "IC50", "setting": "[37]", "value": "> 1.02", "unit": "µM"}, {"measurement": "IC50", "setting": "[38]", "value": "> 1.02", "unit": "µM"}, {"measurement": "IC50", "setting": "[39]", "value": "> 1.02", "unit": "µM"}, {"measurement": "IC50", "setting": "[40]", "value": "> 1.02", "unit": "µM"}, {"measurement": "IC50", "setting": "[41]", "value": 0.101, "unit": "µM"}, {"measurement": "IC50", "setting": "[42]", "value": "> 1.02", "unit": "µM"}]}, {"smiles": "COc1cc2ncn(-c3cc(OCc4ccccc4S(C)(=O)=O)c(C#N)s3)c2cc1OC", "note": "[GSK-319347A]", "values": [{"measurement": "IC50", "setting": "[2]", "value": "> 5", "unit": "µM"}, {"measurement": "IC50", "setting": "[43]", "value": "> 5", "unit": "µM"}, {"measurement": "IC50", "setting": "[15]", "value": "> 5", "unit": "µM"}, {"measurement": "IC50", "setting": "[17]", "value": "> 5", "unit": "µM"}, {"measurement": "IC50", "setting": "[20]", "value": "> 5", "unit": "µM"}, {"measurement": "IC50", "setting": "[21]", "value": "> 5", "unit": "µM"}, {"measurement": "IC50", "setting": "[25]", "value": "> 5", "unit": "µM"}, {"measurement": "IC50", "setting": "[27]", "value": "> 5", "unit": "µM"}, {"measurement": "IC50", "setting": "[29]", "value": "> 5", "unit": "µM"}, {"measurement": "IC50", "setting": "[30]", "value": "> 5", "unit": "µM"}, {"measurement": "IC50", "setting": "[37]", "value": "> 5", "unit": "µM"}, {"measurement": "IC50", "setting": "[41]", "value": "> 5", "unit": "µM"}]}]}
